Values after ≈ are worked out from the molar mass of the structure shown. “Also recorded” adds a separate entry of the source. Starred links: 1 amine or outer side, 2 acyl side, 3 side chain; linkers in the order of their positions; H or OH if unused. Positions of bridges follow the written chain, without caps; N, C: chain ends. Non-standard residues stand in square brackets, D forms with d. Residues, ends and D or L forms follow the SMILES beside them. Chains are numbered I, II in the order given. Actinocin(9to1) = Cc1c2oc3c(C)ccc(C(=O)[*:1])c3nc-2c(C(=O)[*:2])c(N)c1=O; NMeV = CN[C@H](C(=O)O)C(C)C; Sar = CNCC(=O)O
Columns and labels:
P. marneffei = test: in vitro MIC against P. marneffei, tube double dilution; format: cell-based, Penicillium marneffei; conditions: Talaromyces marneffei, standard tube double dilution, read-out: minimum inhibitory concentration (MIC)
Candida albicans = test: survival of mice challenged with Candida albicans; format: in vivo, Swiss albino mice; conditions: for survival rate: 21-day study period, clotrimazole types 7.5 mg/kg, nystatin types 50 mg/kg; for survival rate after extended treatment: treatment extended two more weeks, 28 days post-inoculation
[1] = test system: human breast carcinoma MX-1; test: MX-1 human breast tumor in nude mice; conditions: intraperitoneal; for effect on MX-1 tumors (in words): 0.5 mg/kg escalating to 5 mg/kg (parents) or 20 mg/kg (JAI-); for deaths / survival of MX-1 mice (in words): 3 animals per group
Procedure: Nude mice were grafted with transplantable human breast carcinoma MX-1, which was allowed to grow until the tumors were very large. The mice were then treated with clinically compatible dosage schedules of the compounds. All doses were administered intraperitoneally.
A control group (3 animals in the group), grafted with MX-1 tumor, which was allowed to grow to large tumors. Then, the mice were injected with distilled water and their tumors were measured simultaneously with the experimental treated animals.
1. […] The starting dose of mitomycin C was 0.5 mg/kg. escalating up to 5 mg/kg to all mice in the group. […] (3 animals per group).
2. […] The starting dose was 0.5 mg/kg escalating to 20 mg/kg. […] (3 animals per group).
3. […] The starting dose was 0.5 mg/kg escalating to 5 mg/kg. (3 animals per group).
4. […] The starting dose was 0.5 mg/kg escalating to 20mg/kg doses. (3 animals per group).

[2] = test system: Mycobacterium avicum Complex (MAC); conditions: cited from earlier work
M. leprae = test: in vitro culture of M. leprae, growth inhibition; format: cell-based
oral absorption = format: in vivo
toxicity / LD 50 in mice = conditions: mouse, in vivo
fungi = conditions: cited from earlier work
bacteria = conditions: cited from earlier work
Bacillus subtilis = conditions: 28° C., 12 hours
Procedure: All plates were incubated at 10° C. for 30 minutes, and then transferred to an incubator at 28° C. for 12 hours. Zones of inhibition were obtained from each plate, and Rf values were calculated.

Q: For `Nc1nc(=O)[nH]cc1F` [5-FC, 5-fluorocytosine], which MIC (P. marneffei) is on record?
A: 0.195 to 0.78 µg/mL (≈ 1.51 to 6.04 µM)

Q: Which results are given for `Clc1ccccc1C(c1ccccc1)(c1ccccc1)n1ccnc1` [Clotrimazole]?
A: survival rate (Candida albicans): 62.5%; survival rate after extended treatment (Candida albicans): zero; solubility in water: insoluble in water

Q: Which results are given for `CO[C@@]12[C@H](COC(N)=O)C3=C(C(=O)C(C)=C(N)C3=O)N1C[C@@H]1N[C@@H]12` [Mitomycin C]?
A: effect on MX-1 tumors (in words) ([1]; listed as Mitomycin-C): the tumors regressed; effect on MX-1 tumors (in words) ([1]; listed as mitomycin-C): eliminated the human MX-1 breast tumors; deaths / survival of MX-1 mice (in words) ([1]; listed as Mitomycin-C): died; deaths / survival of MX-1 mice (in words) ([1]; listed as mitomycin-C): All animals died in a two month time span; also recorded: all animals in this treatment group died from hepatotoxicity

Q: Which results are given for `NCC[C@H](O)C(=O)N[C@@H]1C[C@H](N)[C@@H](O[C@H]2O[C@H](CN)[C@@H](O)[C@H](O)[C@H]2O)[C@H](O)[C@H]1O[C@H]1O[C@H](CO)[C@@H](O)[C@H](N)[C@H]1O` [amikacin]?
A: activity against MAC (earlier studies) [2]: high in vitro and in vyvn activity; inhibition at 100 µg/mL (M. leprae; Mycobacterium leprae, 100 mcg/ml, read-out: growth inhibition against M. leprae): 63%; M. leprae killed (M. leprae; concentration not given): 63%; effect of combination with dapsone on M. leprae (M. leprae; in combination with dapsone): did not show any additive effects

Q: Which results are given for `C[C@@H]1[C@H](O)[C@@H](C)/C=C/C=C/C=C/C=C/C=C/C=C/C=C/[C@H](O[C@@H]2O[C@H](C)[C@@H](O)[C@H](N)[C@@H]2O)C[C@@H]2O[C@](O)(C[C@@H](O)C[C@@H](O)[C@H](O)CC[C@@H](O)C[C@@H](O)CC(=O)O[C@H]1C)C[C@H](O)[C@H]2C(=O)O` [amphotericin B]?
A: MIC (P. marneffei): 0.195 to 1.56 µg/mL (≈ 0.211 to 1.69 µM); oral absorption (oral absorption): poorly absorbed orally

Q: For `Cc1c2oc3c(C)ccc(C(=O)N[C@@H]4C(=O)N[C@H](C(C)C)C(=O)N5CCC[C@H]5C(=O)N(C)CC(=O)N(C)[C@@H](C(C)C)C(=O)O[C@@H]4C)c3nc-2c(C(=O)N[C@@H]2C(=O)N[C@H](C(C)C)C(=O)N3CCC[C@H]3C(=O)N(C)CC(=O)N(C)[C@@H](C(C)C)C(=O)O[C@@H]2C)c(N)c1=O` [dactinomycin] (I: T[dV]P[Sar][NMeV] / II: T[dV]P[Sar][NMeV]; ester I:1-I:C, II:1-II:C; linker I:N-II:N via Actinocin(9to1)), which LD50 (toxicity / LD 50 in mice) is on record?
A: 0.5 to 5 mg/kg

Q: Which MIC (P. marneffei) does the source give for `CC(=O)N1CCN(c2ccc(OCC3COC(Cn4ccnc4)(c4ccc(Cl)cc4Cl)O3)cc2)CC1` (stereo not drawn) [ketoconazole] here?
A: 0.195 to 0.39 µg/mL (≈ 0.367 to 0.734 µM)

Q: Which MIC (P. marneffei) does the source give for `Clc1ccc(COC(Cn2ccnc2)c2ccc(Cl)cc2Cl)c(Cl)c1` (stereo not drawn) [miconazole] here?
A: 0.195 µg/mL (≈ 0.469 µM)

Q: With `C[C@@H]1[C@H](O)[C@@H](C)/C=C/C=C/CC/C=C/C=C/C=C/C=C/C(O[C@H]2O[C@H](C)[C@@H](O)[C@H](N)[C@@H]2O)CC2O[C@](O)(CC(O)C(O)CCC(O)CC(O)CC(O)CC(=O)O[C@H]1C)CC(O)C2C(=O)O` (stereo partly drawn) [nystatin] as the compound, how does the survival rate (Candida albicans) read?
A: 75%

Q: What about the “survival rate after extended treatment” value (Candida albicans) of the same compound?
A: 75%

Q: Which results are given for `CC1(C)S[C@@H]2[C@H](NC(=O)Cc3ccccc3)C(=O)N2[C@H]1C(=O)O` [sodium penicillin G]?
A: antifungal activity (stated as known) (fungi): no antifungal activity; solubility in acetone (acetone): insoluble in acetone; solubility in methanol, alcohol, other solvents (methanol, alcohols, ethyl acetate, other solvents): soluble in water, alcohol and some solvents; solubility in water: soluble in water

Q: For bleomycin, which “effect on MX-1 tumors (in words)” value [1] is on record?
A: some initial slowing in tumor growth, but then had no response

Q: What about the “effect on MX-1 tumors (in words)” value ([1]; listed as Bleomycin) of the same compound?
A: some initial slowing of tumor growth, but then there was no response

Q: With hamycin as the compound, how does the “antibacterial activity (stated as known)” value (bacteria) read?
A: no antibacterial activity

Q: What about the “zone of inhibition, B. subtilis seeded plate” value (Bacillus subtilis) of the same compound?
A: no zone spot

From patent US6015808A, “Synthesis of pharmaceutical compositions with lactams and β-lactams/oxo thia azabicyclo compounds” (priority 1995, dated 2000)
